US8772499B2, “TRPV3 modulators” (AbbVie Inc., priority 2011, dated 2014)
Read-outs that look alike come from different tables or passages of the source.

Assays:
[1] = In vitro human microsomal stability assay; assay type: in vitro ADME; settings: human, microsomes, 0.5 h, 0.5 μM, pH 7.4
In short: (§1)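 Incubations ran at 37° C. in microsomal preparations of rat (Sprague-Dawley) or human liver, with NADPH present, including at time zero.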

human TRPV3 = molecular target: T1, human TRPV3 (Homo sapiens, UniProt Q8NET8); assay: In vitro antagonism of recombinant human TRPV3 activation (FLIPR Tetra calcium assay); assay type: cell-based; settings: HEK293 cells stably expressing human TRPV3, agonist 2-APB at 80 μM
T1 construct: expressed in transfected cells
T1 sequence (Q8NET8 1-790): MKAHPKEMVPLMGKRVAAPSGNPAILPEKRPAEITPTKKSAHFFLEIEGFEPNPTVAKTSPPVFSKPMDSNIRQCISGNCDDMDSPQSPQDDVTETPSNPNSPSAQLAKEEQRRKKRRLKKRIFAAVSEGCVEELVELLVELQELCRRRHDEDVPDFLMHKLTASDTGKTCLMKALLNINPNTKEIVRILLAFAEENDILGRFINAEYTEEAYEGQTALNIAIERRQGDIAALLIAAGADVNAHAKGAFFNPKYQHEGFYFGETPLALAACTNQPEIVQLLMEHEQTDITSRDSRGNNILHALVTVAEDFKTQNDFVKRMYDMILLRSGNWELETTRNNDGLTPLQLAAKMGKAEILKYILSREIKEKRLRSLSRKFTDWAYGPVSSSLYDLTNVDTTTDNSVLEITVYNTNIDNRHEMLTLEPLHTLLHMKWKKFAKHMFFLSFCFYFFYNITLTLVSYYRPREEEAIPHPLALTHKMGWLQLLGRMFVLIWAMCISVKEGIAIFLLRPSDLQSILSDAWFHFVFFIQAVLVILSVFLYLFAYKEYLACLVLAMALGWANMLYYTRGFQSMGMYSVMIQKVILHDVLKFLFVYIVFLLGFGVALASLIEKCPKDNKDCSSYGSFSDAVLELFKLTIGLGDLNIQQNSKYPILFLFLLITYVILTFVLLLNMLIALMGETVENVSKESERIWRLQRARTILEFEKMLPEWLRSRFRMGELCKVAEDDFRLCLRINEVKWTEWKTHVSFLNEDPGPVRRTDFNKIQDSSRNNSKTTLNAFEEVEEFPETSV
In short: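 Calcium flux read over a 10 min run: compound added at 10 s to Calcium-4-loaded human TRPV3-HEK293 cells, agonist 2-APB (80 μM, its EC80) after 3 min. IC50 derived from peak-minus-baseline signal as percentage of uninhibited 2-APB response, typically averaged over at least two runs.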

[2] = In vitro rat microsomal stability assay; assay type: in vitro ADME, rat (Sprague-Dawley); settings: Sprague-Dawley, rat, microsomes, 0.5 h, 0.5 μM, pH 7.4
In short: as §1

[3] = actual measured value shown parenthetically, in most cases average of at least two runs, read-out: IC50
[4] = reported range, read-out: IC50 (range class)

SMILES | HUMAN MICROSOMAL STABILITY (% REMAINING AFTER 30 MINUTES) [1] | IC50 (human TRPV3; [3]) | IC50 (human TRPV3; [4]) | RAT MICROSOMAL STABILITY (% REMAINING AFTER 30 MINUTES) [2]
Nc1cccnc1C(O)C1(c2cccc(C(F)(F)F)c2)CCC1 (stereo not shown) [Example 120, (3-aminopyridin-2-yl) {1-[3-(trifluoromethyl)phenyl]cyclobutyl}methanol] | 1.6% | > 20 µM | > 20 µM | <0.01%
Nc1cccnc1C(O)C1(c2ccc(OC(F)(F)F)cc2)CCC1 (stereo not shown) [Example 121, (3-aminopyridin-2-yl) {1-[4-(trifluoromethoxy)phenyl]cyclobutyl}methanol] | 41% | > 20 µM | > 20 µM | 0.18%
O[C@@H](c1ccccn1)C1(c2cc(C(F)(F)F)ccn2)CCC1 [Example 122, (R)-pyridin-2-yl{1-[4-(trifluoromethyl)pyridin-2-yl]cyclobutyl}methanol] | 28% | > 20 µM | > 20 µM | 26%
O[C@H](c1ccccn1)C1(c2cc(C(F)(F)F)ccn2)CCC1 [Example 123, (S)-pyridin-2-yl{1-[4-(trifluoromethyl)pyridin-2-yl]cyclobutyl}methanol] | 21% | 0.39 µM | – | 11%
Nc1cccnc1C(O)C1(c2cccc(OC(F)(F)F)c2)CCC1 (stereo not shown) [Example 124, (3-aminopyridin-2-yl) {1-[3-(trifluoromethoxy)phenyl]cyclobutyl}methanol] | 1.6% | > 20 µM | > 20 µM | <0.01%
O[C@@H](c1ccccn1)C1(c2cc(C(F)(F)F)ccn2)CC(F)(F)C1 [Example 125, (R)-{3,3-difluoro-1-[4-(trifluoromethyl)pyridin-2-yl]cyclobutyl}(pyridin-2-yl)-methanol] | 53% | 18.6 µM | – | 8.8%
O[C@H](c1ccccn1)C1(c2cc(C(F)(F)F)ccn2)CC(F)(F)C1 [Example 126, (S)-{3,3-difluoro-1-[4-(trifluoromethyl)pyridin-2-yl]cyclobutyl}(pyridin-2-yl)methanol] | 21% | 0.82 µM | – | 7.7%
Nc1cccnc1C(O)C1(c2ccc(C(F)(F)F)cc2)CCC1 (stereo not shown) [Example 127, (3-aminopyridin-2-yl) {1-[4-(trifluoromethyl)phenyl]cyclobutyl}methanol] | 51% | 11.6 µM | – | 1.1%
COC1(OC)CC(c2ccc(OC(F)(F)F)cc2)(C(O)c2ccccn2)C1 (stereo not shown) [Example 129, {3,3-dimethoxy-1-[4-(trifluoromethoxy)phenyl]cyclobutyl}(pyridin-2-yl)-methanol] | 46% | 0.33 µM | – | 0.01%
Nc1cccnc1C(O)C1(c2ccc(Cl)c(Cl)c2)CCC1 (stereo not shown) [Example 130, (3-aminopyridin-2-yl)[1-(3,4-dichlorophenyl)cyclobutyl]methanol] | 4.0% | 3.11 µM | – | <0.01%
OC(c1ccccn1)C1(c2ccc(C(F)(F)F)cc2)CC(F)(F)C1 (stereo not shown) [Example 133, {3,3-difluoro-1-[4-(trifluoromethyl)phenyl]cyclobutyl}(pyridin-2-yl)-methanol] | 73% | 0.12 µM | – | 61%
O[C@H](c1ccccn1)[C@@]1(c2ccc(Cl)c(Cl)c2)CCO1 [Example 135, (R)-[(2S)-2-(3,4-dichlorophenyl)oxetan-2-yl](pyridin-2-yl)methanol] | 33% | 1.01 µM | – | 3.4%
